From patent US8796466B2, “Hepatitis C virus inhibitors” (Bristol-Myers Squibb Company, priority 2009, dated 2014)
Read-outs that look alike come from different tables or passages of the source.

System: HCV 1b genotype
Assay: HCV Replicon assay (HCV 1b genotype)
Type: cell-based, Hepatitis C virus
Details: HCV 1b genotype replicon
Protocol: An HCV Replicon assay was utilized in the present disclosure, and was prepared, conducted and validated as described in commonly owned PCT/US2006/022197 and in O'Boyle et. al. Antimicrob Agents Chemother. 2005 April; 49(4):1346-53. Assay methods incorporating luciferase reporters have also been used as described (Apath.com).
HCV-neo replicon cells and replicon cells containing mutations in the NS5A region were used to test the currently described family of compounds. The compounds were determined to have more than 10-fold less inhibitory activity on cells containing mutations than wild-type cells. Thus, the compounds of the present disclosure can be effective in inhibiting the function of the HCV NS5A protein and are understood to be as effective in combinations as previously described in application PCT/US2006/022197 and commonly owned WO/04014852. Further, the compounds of the present disclosure can be effective against the HCV 1b genotype. It should also be understood that the compounds of the present disclosure can inhibit multiple genotypes of HCV. […] In one embodiment, compounds of the present disclosure are inhibitory versus 1a, 1b, 2a, 2b, 3a, 4a, and 5a genotypes.

[1] = Hepatitis C virus, class symbol, read-out: Range (EC50 values against HCV 1b)
[2] = Hepatitis C virus, Effective 50% inhibitory concentration, read-out: 1b EC50

SMILES	EC50 [1]	EC50 [2]	EC50 (class symbol, read-out: Range (EC50 values against HCV 1b))
COC(=O)N[C@H](C(=O)N1CCCC[C@H]1c1ncc(-c2ccc(C#Cc3ccc(-c4cnc([C@@H]5CCCCN5C(=O)[C@@H](NC(=O)OC)C(C)C)[nH]4)cc3)cc2)[nH]1)C(C)C [Example N6, methyl ((1S)-1-(((2S)-2-(4-(4-((4-(2-((2S)-1-((2S)-2-((methoxycarbonyl)amino)-3-methylbutanoyl)-2-piperidinyl)-1H-imidazol-4-yl)phenyl)ethynyl)phenyl)-1H-imidazol-2-yl)-1-piperidinyl)carbonyl)-2-methylpropyl)carbamate]	10 to 350 nM		
COC(=O)N[C@H](C(=O)N1[C@@H]2C[C@@H]2C[C@H]1c1nc2ccc3cc(C#Cc4ccc5c(ccc6nc([C@@H]7C[C@H]8C[C@H]8N7C(=O)[C@@H](NC(=O)OC)C7CCOCC7)[nH]c65)c4)ccc3c2[nH]1)C(C)C [Example D-11, methyl ((1S)-2-((1R,3S,5R)-3-(7-((2-((1R,3S,5R)-2-((2S)-2-((methoxycarbonyl)amino)-3-methylbutanoyl)-2-azabicyclo[3.1.0]hex-3-yl)-1H-naphtho[1,2-d]imidazol-7-yl)ethynyl)-1H-naphtho[1,2-d]imidazol-2-yl)-2-azabicyclo[3.1.0]hex-2-yl)-2-oxo-1-(tetrahydro-2H-pyran-4-yl)ethyl)carbamate]	0.002 to 0.099 nM		
COC(=O)N[C@H](C(=O)N1[C@@H]2C[C@@H]2C[C@H]1c1nc(-c2ccc(C#Cc3ccc(-c4c[nH]c([C@@H]5C[C@H]6C[C@H]6N5C(=O)[C@@H](NC(=O)OC)C(C)C)n4)cc3)cc2)c[nH]1)C(C)C [Example M3, methyl ((1S)-1-(((1R,3S,5R)-3-(4-(4-((4-(2-((1R,3S,5R)-2-((2S)-2-((methoxycarbonyl)amino)-3-methylbutanoyl)-2-azabicyclo[3.1.0]hex-3-yl)-1H-imidazol-4-yl)phenyl)ethynyl)phenyl)-1H-imidazol-2-yl)-2-azabicyclo[3.1.0]hex-2-yl)carbonyl)-2-methylpropyl)carbamate]	0.002 to 0.099 nM		
COC(=O)N[C@H](C(=O)N1CCC[C@H]1c1nc(-c2ccc(C#Cc3ccc(-c4c[nH]c([C@@H]5CCCN5C(=O)[C@@H](NC(=O)OC)C(C)C)n4)cc3)cc2)c[nH]1)C(C)C [Example M1, methyl ((1S)-1-(((2S)-2-(4-(4-((4-(2-((2S)-1-((2S)-2-((methoxycarbonyl)amino)-3-methylbutanoyl)-2-pyrrolidinyl)-1H-imidazol-4-yl)phenyl)ethynyl)phenyl)-1H-imidazol-2-yl)-1-prrolidinyl)carbonyl)-2-methylpropyl)carbamate]	0.002 to 0.099 nM		
COC(=O)N[C@H](C(=O)N1[C@@H]2C[C@@H]2C[C@H]1c1nc(-c2ccc(C#Cc3ccc(-c4c[nH]c([C@@H]5C[C@H]6C[C@H]6N5C(=O)[C@@H](NC(=O)OC)C5CCOCC5)n4)cc3)cc2)c[nH]1)C(C)C [Example M7, methyl ((1S)-1-(((1R,3S,5R)-3-(4-(4-((4-(2-((1R,3S,5R)-2-((2S)-2-((methoxycarbonyl)amino)-2-(tetrahydro-2H-pyran-4-yl)acetyl)-2-azabicyclo[3.1.0]hex-3-yl)-1H-imidazol-4-yl)phenyl)ethynyl)phenyl)-1H-imidazol-2-yl)-2-azabicyclo[3.1.0]hex-2-yl)carbonyl)-2-methylpropyl)carbamate]	0.002 to 0.099 nM		
COC(=O)N[C@@H](C(=O)N1[C@@H]2C[C@@H]2C[C@H]1c1ncc(-c2ccc(C#Cc3ccc4c(ccc5nc([C@@H]6C[C@H]7C[C@H]7N6C(=O)[C@H](NC(=O)OC)c6ccccc6)[nH]c54)c3)cc2)[nH]1)c1ccccc1 [Example D-8, methyl ((1R)-2-((1R,3S,5R)-3-(7-((4-(2-((1R,3S,5R)-2-((2R)-2-((methoxycarbonyl)amino)-2-phenylacetyl)-2-azabicyclo[3.1.0]hex-3-yl)-1H-imidazol-4-yl)phenyl)ethynyl)-1H-naphtho[1,2-d]imidazol-2-yl)-2-azabicyclo[3.1.0]hex-2-yl)-2-oxo-1-phenylethyl)carbamate]	0.002 to 0.099 nM	0.005 nM	
COC(=O)N[C@H](C(=O)N1C[C@@H](C)C[C@H]1c1ncc(-c2ccc([C@H]3C[C@@H]3c3ccc(-c4cnc([C@@H]5C[C@H](C)CN5C(=O)[C@@H](NC(=O)OC)C(C)C)[nH]4)cc3)cc2)[nH]1)C(C)C [Example M9.7, methyl ((1S)-1-(((2S,4S)-2-(4-(4-((1S,2S)-2-(4-(2-((2S,4S)-1-((2S)-2-((methoxycarbonyl)amino)-3-methylbutanoyl)-4-methyl-2-pyrrolidinyl)-1H-imidazol-4-yl)phenyl)cyclopropyl)phenyl)-1H-imidazol-2-yl)-4-methyl-1-pyrrolidinyl)carbonyl)-2-methylpropyl)carbamate]	0.002 to 0.099 nM		
CN(C)[C@@H](C(=O)N1CCC[C@H]1c1ncc(-c2ccc(Oc3cccc(-c4cnc([C@@H]5CCCN5C(=O)[C@@H](c5ccccc5)N(C)C)[nH]4)c3)cc2)[nH]1)c1ccccc1 [OL-4, (1R)-2-((2S)-2-(4-(3-(4-(2-((2S)-1-((2R)-2-(dimethylamino)-2-phenylacetyl)-2-pyrrolidinyl)-1H-imidazol-4-yl)phenoxy)phenyl)-1H-imidazol-2-yl)-1-pyrrolidinyl)-N,N-dimethyl-2-oxo-1-phenylethanamine]	0.002 to 0.099 nM	0.07 nM	
COC(=O)N[C@H](C(=O)N1[C@H](c2ncc(-c3ccc(C#Cc4ccc(-c5cnc([C@@H]6C[C@@H]7C[C@@H]7N6C(=O)[C@@H](NC(=O)OC)C6CCOCC6)[nH]5)cc4)cc3)[nH]2)C[C@@H]2C[C@@H]21)C1CCOCC1 [Example N9, dimethyl (1,2-ethynediylbis(4,1-phenylene-1H-imidazole-4,2-diyl(1S,3S,5S)-2-azabicyclo[3.1.0]hexane-3,2-diyl((1S)-2-oxo-1-(tetrahydro-2H-pyran-4-yl)-2,1-ethanediyl)))biscarbamate]	0.002 to 0.099 nM		
COC(=O)N[C@@H](C(=O)N1CCC[C@H]1c1nc(-c2ccc(COCc3cccc(-c4c[nH]c([C@@H]5CCCN5C(=O)[C@H](NC(=O)OC)c5ccccc5)n4)c3)cc2)c[nH]1)c1ccccc1 [OL-22]			0.002 to 0.099 nM
COC(=O)N[C@@H](C(=O)N1CCC[C@H]1c1nc(-c2ccc(C#Cc3ccc(-c4c[nH]c([C@@H]5CCCN5C(=O)[C@H](NC(=O)OC)c5ccccc5)n4)cc3)cc2)c[nH]1)c1ccccc1 [Example M2, dimethyl (1,2-ethynediylbis(4,1-phenylene-1H-imidazole-4,2-diyl(2S)-2,1-pyrrolidinediyl((1R)-2-oxo-1-phenyl-2,1-ethanediyl)))biscarbamate]	0.1 to 0.99 nM	0.24 nM	
COC(=O)N[C@@H](C(=O)N1CC(F)(F)C[C@H]1c1ncc(-c2ccc(C#Cc3ccc(-c4cnc([C@@H]5CC(F)(F)CN5C(=O)[C@H](NC(=O)OC)C5CCOCC5)[nH]4)cc3)cc2)[nH]1)C1CCOCC1 [Example N4, dimethyl (ethyne-1,2-diylbis(4,1-phenylene-1H-imidazole-5,2-diyl((2S)-4,4-difluoropyrrolidine-2,1-diyl)((1R)-2-oxo-1-(tetrahydro-2H-pyran-4-yl)ethane-2,1-diyl)))biscarbamate]	10 to 350 nM	0.18 nM	
COC(=O)N[C@H](C(=O)N1CC(F)(F)C[C@H]1c1ncc(-c2ccc(C#Cc3ccc(-c4cnc([C@@H]5CC(F)(F)CN5C(=O)[C@H](NC(=O)OC)C5CCOCC5)[nH]4)cc3)cc2)[nH]1)C1CCOCC1 [Example N3, methyl ((1R)-2-((2S)-2-(5-(4-((4-(2-((2S)-4,4-difluoro-1-((2S)-2-((methoxycarbonyl)amino)-2-(tetrahydro-2H-pyran-4-yl)acetyl)pyrrolidin-2-yl)-1H-imidazol-5-yl)phenyl)ethynyl)phenyl)-1H-imidazol-2-yl)-4,4-difluoropyrrolidin-1-yl)-2-oxo-1-(tetrahydro-2H-pyran-4-yl)ethyl)carbamate]	10 to 350 nM	0.25 nM	
COC(=O)N[C@@H](C(=O)N1CCC[C@H]1c1nc(-c2ccc(COCc3ccc(-c4c[nH]c([C@@H]5CCCN5C(=O)[C@H](NC(=O)OC)c5ccccc5)n4)cc3)cc2)c[nH]1)c1ccccc1 [OL-16, dimethyl (oxybis(methylene-4,1-phenylene-1H-imidazole-4,2-diyl(2S)-2,1-pyrrolidinediyl((1R)-2-oxo-1-phenyl-2,1-ethanediyl)))biscarbamate]	0.002 to 0.099 nM		
COC(=O)N[C@H](C(=O)N1[C@@H]2C[C@@H]2C[C@H]1c1nc(Cl)c(-c2ccc(C#Cc3ccc(-c4[nH]c([C@@H]5C[C@H]6C[C@H]6N5C(=O)[C@@H](NC(=O)OC)C(C)C)nc4Cl)cc3)cc2)[nH]1)C(C)C [Example M9, methyl ((1S)-1-(((1R,3S,5R)-3-(4-chloro-5-(4-((4-(4-chloro-2-((1R,3S,5R)-2-((2S)-2-((methoxycarbonyl)amino)-3-methylbutanoyl)-2-azabicyclo[3.1.0]hex-3-yl)-1H-imidazol-5-yl)phenyl)ethynyl)phenyl)-1H-imidazol-2-yl)-2-azabicyclo[3.1.0]hex-2-yl)carbonyl)-2-methylpropyl)carbamate]	0.002 to 0.099 nM		
COC(=O)N[C@H](C(=O)N1CCC[C@H]1c1ncc(-c2cccc(C#Cc3cccc(-c4cnc([C@@H]5CCCN5C(=O)[C@@H](NC(=O)OC)C5CCOCC5)[nH]4)c3)c2)[nH]1)C1CCOCC1 [Example J2, dimethyl (1,2-ethynediylbis(3,1-phenylene-1H-imidazole-4,2-diyl(2S)-2,1-pyrrolidinediyl((1S)-2-oxo-1-(tetrahydro-2H-pyran-4-yl)-2,1-ethanediyl)))biscarbamate]	0.1 to 0.99 nM	0.12 nM	
